Like-named read-outs stand apart in the source and are kept apart here.
Columns and labels:
Type in all cases: cell-based
[1] = target: T1, recombinant human ghrelin receptor (HEK293/GRLN) (Homo sapiens, UniProt Q92847); experiment: Ghrelin inverse agonist potency (EC50) with IP-1 (IP-One HTRF) assay; details: IP-1 assay
T1 construct: expressed in transfected cells
Summary of the method: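 IP-1 accumulation was measured by HTRF (IP1-d2/Tb-cryptate, 620/665 nm read after 1 hour at room temperature) following 1 hour of compound treatment at 37° C. Cells were HEK293 stably expressing human ghrelin receptor, plated a day earlier on Matrigel. Inverse agonist potency was reported as EC50.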

[2] = target: T2, GHSR-1a (HEK293/GHSR1a cell line) (Homo sapiens, UniProt Q92847); experiment: Ghrelin agonist potency (EC50) with calcium FLIPR assay
T2 construct: expressed in transfected cells; host or cells: HEK293/GHSR1a cell line
T2 sequence (Q92847 whole entry): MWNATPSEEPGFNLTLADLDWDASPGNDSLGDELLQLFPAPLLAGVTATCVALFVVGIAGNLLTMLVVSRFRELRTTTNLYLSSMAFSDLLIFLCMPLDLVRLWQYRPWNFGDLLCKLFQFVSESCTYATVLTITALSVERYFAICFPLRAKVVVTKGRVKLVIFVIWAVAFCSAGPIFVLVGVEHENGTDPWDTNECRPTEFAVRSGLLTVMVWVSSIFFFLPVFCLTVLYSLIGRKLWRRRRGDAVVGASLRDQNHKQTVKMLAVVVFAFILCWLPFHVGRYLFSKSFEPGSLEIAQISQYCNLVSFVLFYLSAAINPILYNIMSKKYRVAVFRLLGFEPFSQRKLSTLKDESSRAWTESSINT
Summary of the method: (§1)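 The cells were plated a day ahead and loaded with a calcium-sensitive dye. Test compound was then added and incubated 15 min, followed by ghrelin. Antagonist potency was calculated from inhibition of the response to 10 nM ghrelin, and agonist potency from the calcium rise caused by compound alone.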

[3] = target: T2, GHSR-1a (HEK293/GHSR1a cell line); experiment: Ghrelin antagonist potency (IC50) with calcium FLIPR assay, ghrelin 10 nM
Summary of the method: as §1

[4] = HEK293/GRLN, read-out: Activity EC50 (ghrelin inverse agonist potency)
[5] = HEK293/GHSR1a, read-out: Activity EC50/EMax: EC50 (ghrelin agonist potency)
[6] = HEK293/GHSR1a, ghrelin 10 nM, read-out: Activity IC50 (ghrelin antagonist potency)
[7] = ghrelin inverse agonist potency, read-out: Activity EC50
[8] = ghrelin agonist potency, read-out: Activity EC50/EMax
[9] = ghrelin antagonist potency, read-out: Activity IC50

T1 sequence (Q92847 whole entry): as above

COc1cc(S(=O)(=O)Cc2ccc(CO)cc2)ccc1NC(=O)NC(C)c1ccc(OC)c(Cl)c1Cl (stereo not drawn) [H1435, 1-(1-(2,3-dichloro-4-methoxyphenyl)ethyl)-3-(4-((4-(hydroxymethyl)benzyl)sulfonyl)-2-methoxyphenyl)urea]
EC50 [1, 4]: > 10 µM | EC50 [2, 5]: > 30 µM | IC50 [3, 6]: > 30 µM

COc1cc(S(=O)(=O)Cc2ccc3c(c2)CCN(C)C3)ccc1NC(=O)NC(C)c1c(F)cccc1F (stereo not drawn) [H1436, 1-(1-(2,6-difluorophenyl)ethyl)-3-(2-methoxy-4-(((2-methyl-1,2,3,4-tetrahydroisoquinolin-6-yl)methyl)sulfonyl)phenyl)urea]
EC50 [1, 4]: 0.0043 µM | EC50 [2, 5]: > 30 µM | IC50 [3, 6]: 0.0195 µM

COc1cc(S(=O)(=O)Cc2ccc3c(c2)CN(C)C3)ccc1NC(=O)NC(C)c1c(F)cccc1F (stereo not drawn) [H1437, 1-(1-(2,6-difluorophenyl)ethyl)-3-(2-methoxy-4-(((2-methylisoindolin-5-yl)methyl)sulfonyl)phenyl)urea]
EC50 [1, 4]: 0.01 µM | EC50 [2, 5]: > 30 µM | IC50 [3, 6]: 0.0243 µM

COc1cc(S(=O)(=O)Cc2ccc3c(c2)CN(C)C3)ccc1NC(=O)NC(C)c1ccccc1OC (stereo not drawn) [H1438, 1-(2-methoxy-4-(((2-methylisoindolin-5-yl)methyl)sulfonyl)phenyl)-3-(1-(2-methoxyphenyl)ethyl)urea]
EC50 [1, 4]: 0.00276 µM | EC50 [2, 5]: > 30 µM | IC50 [3, 6]: 0.0126 µM

COc1cc(S(=O)(=O)Cc2cc3c(cc2F)CNCC3)ccc1NC(=O)NC(C)c1cccc(Cl)c1Cl (stereo not drawn) [H1439, 1-(1-(2,3-dichlorophenyl)ethyl)-3-(4-(((7-fluoro-1,2,3,4-tetrahydroisoquinolin-6-yl)methyl)sulfonyl)-2-methoxyphenyl)urea]
EC50 [1, 4]: 0.0141 µM | EC50 [2, 5]: > 30 µM | IC50 [3, 6]: 0.0124 µM

COc1cc(S(=O)(=O)Cc2ccc3c(c2)CC(C)N(C)C3)ccc1NC(=O)NC(C)c1ccccc1 (stereo not drawn) [H1440, 1-(4-(((2,3-dimethyl-1,2,3,4-tetrahydroisoquinolin-6-yl)methyl)sulfonyl)-2-methoxyphenyl)-3-(1-phenylethyl)urea]
EC50 [1, 4]: 0.0029 µM | EC50 [2, 5]: > 30 µM | IC50 [3, 6]: 0.0044 µM

COc1ccc(C(C)NC(=O)Nc2ccc(S(=O)(=O)Cc3ccc4c(c3)CCN(C)C4)cc2OC)cc1 (stereo not drawn) [H1442, 1-(2-methoxy-4-(((2-methyl-1,2,3,4-tetrahydroisoquinolin-6-yl)methyl)sulfonyl)phenyl)-3-(1-(4-methoxyphenyl)ethyl)urea]
EC50 [1, 4]: 0.0164 µM | EC50 [2, 5]: > 30 µM | IC50 [3, 6]: 0.0581 µM

COc1cc(S(=O)(=O)Cc2ccc3c(c2)CCNC3)ccc1NC(=O)N(C)C(C)c1cccc(Cl)c1Cl (stereo not drawn) [H1443, 1-(1-(2,3-dichlorophenyl)ethyl)-3-(2-methoxy-4-(((1,2,3,4-tetrahydroisoquinolin-6-yl)methyl)sulfonyl)phenyl)-1-methylurea]
EC50 [1, 4]: 0.0858 µM | EC50 [2, 5]: > 30 µM | IC50 [3, 6]: 0.068 µM

COc1ccc(C(C)NC(=O)Nc2ccc(S(=O)(=O)Cc3ccc4c(c3)CNC4)cc2)cc1OC (stereo not drawn) [H1444, 1-(1-(3,4-dimethoxyphenyl)ethyl)-3-(4-((isoindolin-5-ylmethyl)sulfonyl)phenyl)urea]
EC50 [1, 4]: 0.185 µM | EC50 [2, 5]: > 30 µM | IC50 [3, 6]: 2.86 µM

COc1ccc(C(C)NC(=O)Nc2ccc(S(=O)(=O)Cc3ccc4c(c3)CN(C)C4)cc2)cc1OC (stereo not drawn) [H1449, 1-(1-(3,4-dimethoxyphenyl)ethyl)-3-(4-(((2-methylisoindolin-5-yl)methyl)sulfonyl)phenyl)urea]
EC50 [1, 4]: 0.928 µM | EC50 [2, 5]: > 30 µM | IC50 [3, 6]: 4.17 µM

COc1cccc(OC)c1C(C)NC(=O)Nc1ccc(S(=O)(=O)Cc2ccc3c(c2)CNC3)cc1 (stereo not drawn) [H1450, 1-(1-(2,6-dimethoxyphenyl)ethyl)-3-(4-((isoindolin-5-ylmethyl)sulfonyl)phenyl)urea]
EC50 [1, 4]: 0.182 µM | EC50 [2, 5]: > 30 µM | IC50 [3, 6]: 0.29 µM

COc1cccc(OC)c1C(C)NC(=O)Nc1ccc(S(=O)(=O)Cc2ccc3c(c2)CN(C)C3)cc1 (stereo not drawn) [H1451, 1-(1-(2,6-dimethoxyphenyl)ethyl)-3-(4-(((2-methylisoindolin-5-yl)methyl)sulfonyl)phenyl)urea]
EC50 [1, 4]: 0.0333 µM | EC50 [2, 5]: > 30 µM | IC50 [3, 6]: 0.0685 µM

CC(NC(=O)Nc1ccc(S(=O)(=O)Cc2ccc3c(c2)CNC3)cc1)c1ccc2c(c1)OCO2 (stereo not drawn) [H1452, 1-(1-(benzo[d][1,3]dioxol-5-yl)ethyl)-3-(4-((isoindolin-5-ylmethyl)sulfonyl)phenyl)urea]
EC50 [1, 4]: 0.0348 µM | EC50 [2, 5]: > 30 µM | IC50 [3, 6]: 0.0869 µM

CC(NC(=O)Nc1ccc(S(=O)(=O)Cc2ccc3c(c2)CN(C)C3)cc1)c1ccc2c(c1)OCO2 (stereo not drawn) [H1453, 1-(1-(benzo[d][1,3]dioxol-5-yl)ethyl)-3-(4-(((2-methylisoindolin-5-yl)methyl)sulfonyl)phenyl)urea]
EC50 [1, 4]: 0.0468 µM | EC50 [2, 5]: > 30 µM | IC50 [3, 6]: 0.109 µM

NC(=O)C(NC(=O)Nc1ccc(S(=O)(=O)Cc2ccc3c(c2)CNC3)cc1)c1ccccc1 (stereo not drawn) [H1457, 2-(3-(4-((isoindolin-5-ylmethyl)sulfonyl)phenyl)ureido)-2-phenylacetamide]
EC50 [1, 7]: 0.123 µM | EC50 [2, 8]: > 30 µM | IC50 [3, 9]: 16.6 µM

CC(NC(=O)N(O)c1ccc(S(=O)(=O)Cc2ccc3c(c2)CN(C)C3)cc1)c1ccccc1 (stereo not drawn) [H1458, 1-hydroxy-1-(4-(((2-methylisoindolin-5-yl)methyl)sulfonyl)phenyl)-3-(1-phenylethyl)urea]
EC50 [1, 7]: 0.288 µM | EC50 [2, 8]: > 30 µM | IC50 [3, 9]: 1.17 µM

CC(c1ccccc1)N(C)C(=O)Nc1ccc(S(=O)(=O)Cc2ccc3c(c2)CNC3)cc1O (stereo not drawn) [H1460, 3-(2-hydroxy-4-((isoindolin-5-ylmethyl)sulfonyl)phenyl)-1-methyl-1-(1-phenylethyl)urea]
EC50 [1, 7]: 0.163 µM | EC50 [2, 8]: > 30 µM | IC50 [3, 9]: 0.536 µM

COc1cc(S(=O)(=O)Cc2nc3c(s2)CNC3)ccc1NC(=O)N[C@@H](C)c1ccccc1 [H1463, (S)-1-(4-(((5,6-dihydro-4H-pyrrolo[3,4-d]thiazol-2-yl)methyl)sulfonyl)-2-methoxyphenyl)-3-(1-phenylethyl)urea]
EC50 [1, 7]: 0.289 µM | EC50 [2, 8]: > 30 µM | IC50 [3, 9]: 1.15 µM

COc1cc(S(=O)(=O)Cc2nc3c(s2)CN(C)C3)ccc1NC(=O)N[C@@H](C)c1ccccc1 [H1464, (S)-1-(2-methoxy-4-(((5-methyl-5,6-dihydro-4H-pyrrolo[3,4-d]thiazol-2-yl)methyl)sulfonyl)phenyl)-3-(1-phenylethyl)urea]
EC50 [1, 7]: 0.29 µM | EC50 [2, 8]: > 30 µM | IC50 [3, 9]: 2.96 µM

C[C@H](NC(=O)Nc1ccc(S(=O)(=O)Cc2nc3c(s2)CNC3)cc1)c1ccccc1 [H1465, (S)-1-(4-(((5,6-dihydro-4H-pyrrolo[3,4-d]thiazol-2-yl)methyl)sulfonyl)phenyl)-3-(1-phenylethyl)urea]
EC50 [1, 7]: 0.678 µM | EC50 [2, 8]: > 30 µM | IC50 [3, 9]: 5.29 µM

COC(=O)c1cc(S(=O)(=O)Cc2ccc3c(c2)CN(C)C3)ccc1NC(=O)NC(C)c1ccccc1 (stereo not drawn) [H1466, methyl 5-(((2-methylisoindolin-5-yl)methyl)sulfonyl)-2-(3-(1-phenylethyl)ureido)benzoate]
EC50 [1, 7]: 0.0168 µM | EC50 [2, 8]: > 30 µM | IC50 [3, 9]: 0.0724 µM

CC(NC(=O)Nc1ccc(S(=O)(=O)Cc2ccc3c(c2)CNC3)cc1CO)c1ccccc1 (stereo not drawn) [H1467, 1-(2-(hydroxymethyl)-4-((isoindolin-5-ylmethyl)sulfonyl)phenyl)-3-(1-phenylethyl)urea]
EC50 [1, 7]: 0.0197 µM | EC50 [2, 8]: > 30 µM | IC50 [3, 9]: 0.121 µM

— patent US10501479B2, “Benzenesulfonyl-asymmetric ureas and medical uses thereof” (HELSINN HEALTHCARE SA, priority 2016, dated 2019)
